Data on twelve molecules can be found in ChEMBL document CHEMBL1201862, “PubChem BioAssay data set” (2004).

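Where inhibition never reached the appropriate level, the endpoint shown equals the highest concentration tested. Otherwise, values were interpolated linearly from a five-concentration, 48-hour dose response in 96-well plates. The concentration for 50% growth inhibition is given as GI50.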 The source made the active and inactive calls. Cut-off read from the data, not from the text of the source: active = GI50 up to about 1.1 µM and inactive = higher.

Holding throughout (assay): NCI anticancer screen, dose series, 48 h
In assay [1] the test system is HT-29.
In assay [2] the test system is MOLT-4.
Assay [3] relates to MCF7.
Assay [4] deals with OVCAR-8.
For assay [5], the system named is A498.
Assay [6] deals with SK-MEL-2.
Assay [7] concerns NCI/ADR-RES.
The test system of assay [8] is SW-620.
For assay [9], the system named is EKVX.
For assay [10], the system named is OVCAR-4.
The test system of assay [11] is CAKI-1.
The test system of assay [12] is UO-31.
For assay [13], the system named is HL-60.
In assay [14] the test system is M14.
Assay [15] has as its system SF-268.
The test system of assay [16] is A549.
For assay [17], the system named is SK-OV-3.
Assay [18] relates to HOP-92.
Assay [19] deals with SF-539.

Turning to `CCOC(=O)N(Cc1cccs1)c1cc(OC)c(OC)c(OC)c1`, the GI50 in assay [1] is 70.1 µM (inactive); in assay [2], 13.6 µM (inactive); in [3], 58.2 µM (inactive); in [4], 90.4 µM (inactive); in assay [5], > 100 µM (inactive); in assay [6], 26.5 µM (inactive). The GI50 is 3.01 µM (inactive) in [7]; > 100 µM (inactive) in [8]; > 100 µM (inactive) in assay [9]; 32.1 µM (inactive) in [10]; 56.5 µM (inactive) in assay [11]; 38.4 µM (inactive) in assay [12]. Also, the GI50 in assay [13] is 34.8 µM (inactive); in [14] it was > 100 µM (inactive); in assay [15] it was > 100 µM (inactive); in assay [16], 94.6 µM (inactive).
Turning to `O=C(N/N=C\c1ccc([N+](=O)[O-])cc1)Nc1ccc2ccccc2c1`, the GI50 is 27.1 µM (inactive) in assay [1]; 31.4 µM (inactive) in assay [17]; 28.2 µM (inactive) in assay [18]; 20.7 µM (inactive) in assay [19]; > 100 µM (inactive) in [2]; 32.5 µM (inactive) in assay [3]. Besides, the GI50 is 29.8 µM (inactive) in assay [4]; 24.2 µM (inactive) in [5]; > 100 µM (inactive) in [6]; 50.6 µM (inactive) in assay [7]; 23.1 µM (inactive) in assay [8]; 44.6 µM (inactive) in assay [9]. The GI50 in assay [10] is 21.5 µM (inactive); in [11] it was 37.5 µM (inactive); in [12], 82.4 µM (inactive); in [14], 32.4 µM (inactive); in [15], 35.1 µM (inactive); in [16], 43.8 µM (inactive).
Turning to `CCN(CC)/N=N/c1c(C(N)=O)n[nH]c1C`, the GI50 in assay [1] was > 100 µM (inactive); in assay [17], 22.1 µM (inactive); in assay [18], 11.3 µM (inactive); in assay [19], 29.5 µM (inactive); in assay [3], 30.5 µM (inactive); in [4], 49.4 µM (inactive). The GI50 was > 100 µM (inactive) in assay [5]; > 100 µM (inactive) in assay [6]; 48.5 µM (inactive) in assay [7]; 71.3 µM (inactive) in assay [8]; 26.9 µM (inactive) in assay [9]; > 100 µM (inactive) in assay [10]. The GI50 was 17.9 µM (inactive) in assay [11]; 20.7 µM (inactive) in assay [12]; > 100 µM (inactive) in assay [14]; 39.3 µM (inactive) in [15]; 69 µM (inactive) in assay [16].
`C/C1=C\[C@H](C)C[C@H](C)OC(=O)C[C@H](c2ccc(O)cc2)NC(=O)[C@H](Cc2ccc(O)c(I)c2)N(C)C(=O)[C@H](C)NC(=O)[C@@H](C)C1`: the GI50 in assay [1] is 0.00274 µM (active); in assay [17], 0.054 µM (active); in assay [18], 0.0365 µM (active); in assay [2], 0.258 µM (active); in assay [3], 0.019 µM (active); in assay [4], 0.0137 µM (active). In addition, the GI50 in assay [5] is 0.016 µM (active); in assay [6], 0.0646 µM (active); in [7] it was 1.11 µM (active); in assay [8], 0.00863 µM (active); in assay [9], 0.0596 µM (active); in [10], 0.00653 µM (active). Further, the GI50 in assay [12] was 0.0535 µM (active); in assay [14], 0.0405 µM (active); in assay [15], 0.011 µM (active); in assay [16], 0.0102 µM (active).
In the case of `CSc1nc(C)cc(Nc2ccc(O)c(CN3CCCCC3)c2)n1`, the GI50 is 20.4 µM (inactive) in assay [1]; > 100 µM (inactive) in assay [17]; 72.4 µM (inactive) in [18]; 43.3 µM (inactive) in assay [19]; 57.7 µM (inactive) in assay [2]; 67.6 µM (inactive) in assay [3]. The GI50 in assay [4] was > 100 µM (inactive); in [5], 23.1 µM (inactive); in [7], > 100 µM (inactive); in assay [8] it was 71.9 µM (inactive); in assay [9] it was 27.5 µM (inactive); in assay [10] it was > 100 µM (inactive). Moreover, the GI50 in assay [11] is > 100 µM (inactive); in [12], 48.1 µM (inactive); in [14] it was 16.3 µM (inactive); in assay [15] it was > 100 µM (inactive); in assay [16] it was > 100 µM (inactive).
Take `Cn1ncc2[nH]cnc2c1=S`: the GI50 in assay [1] was 57.7 µM (inactive); in [19] it was > 100 µM (inactive); in assay [2], 43.8 µM (inactive); in assay [3], 79.3 µM (inactive); in assay [4], > 100 µM (inactive); in assay [5] it was > 100 µM (inactive). Further, the GI50 in assay [6], in assay [7], in [8], in [9], in assay [11] and in assay [12] was > 100 µM (inactive) in each case. The GI50 in [13] is 0.541 µM (active); in [14] it was > 100 µM (inactive); in assay [15], > 100 µM (inactive); in assay [16], > 100 µM (inactive).
For `COc1ccc(/C(Br)=C2\OC(=O)c3ccccc32)cc1`, the GI50 in assay [1], in assay [17], in assay [18], in assay [19], in assay [2] and in assay [3] was > 10 µM (inactive) in each case. Also, the GI50 in [4], in assay [6], in assay [7], in assay [8], in [9] and in assay [10] was > 10 µM (inactive) throughout. Also, the GI50 in assay [11], in [12], in assay [13], in assay [14], in [15] and in assay [16] was > 10 µM (inactive) each time.
For `CC(=O)NCCSC(=O)c1ccccc1`, the GI50 in [1] is 0.167 µM (active); in assay [17], 1.13 µM (inactive); in [18], 0.918 µM (active); in assay [19] it was 0.387 µM (active); in [2] it was < 0.0176 µM (active); in assay [3], 0.0653 µM (active). Also, the GI50 was 0.192 µM (active) in assay [4]; 0.295 µM (active) in [6]; 0.163 µM (active) in assay [7]; 0.0295 µM (active) in assay [8]; 2.77 µM (inactive) in assay [9]; 1.38 µM (inactive) in assay [10]. Further, the GI50 in assay [11] was 0.0226 µM (active); in [12], 0.264 µM (active); in [14] it was 0.0923 µM (active); in assay [15] it was 0.0977 µM (active); in assay [16], 0.155 µM (active).
On to `Cc1ccc(/C=C2\Sc3scc(-c4ccccc4)[n+]3C2=O)cc1`, for which the GI50 in [1] is 24.7 µM (inactive); in assay [17], 44.2 µM (inactive); in assay [18] it was 15.4 µM (inactive); in assay [19], 22.3 µM (inactive); in assay [2], 30.1 µM (inactive); in [3], 37.5 µM (inactive). The GI50 in assay [4] is 22.4 µM (inactive); in assay [6], 24.1 µM (inactive); in assay [7], 19.5 µM (inactive); in assay [8], 20.6 µM (inactive); in [9], 19.3 µM (inactive); in [10] it was 29 µM (inactive). The GI50 was 14.5 µM (inactive) in assay [12]; 2.69 µM (inactive) in assay [13]; 23.8 µM (inactive) in [14]; 17.9 µM (inactive) in assay [15]; 25.1 µM (inactive) in assay [16].
For `CC(=O)Oc1ccccc1-c1cc2ccccc2oc1=O`, the GI50 in assay [1], in [19], in [2], in assay [3], in assay [4] and in assay [5] was > 100 µM (inactive) in each case. Besides, the GI50 in assay [6] is > 100 µM (inactive); in assay [7], 76.9 µM (inactive); in assay [8] it was > 100 µM (inactive); in assay [9] it was 63.5 µM (inactive); in [12] it was 46.8 µM (inactive); in assay [13], > 100 µM (inactive). For the same molecule, the GI50 in assay [14], in assay [15] and in assay [16] was > 100 µM (inactive) in each case.
For the molecule `C/C=C\C(CC(=O)O)CN1CCC2=C(C1)C(S(=O)(=O)C(F)(F)F)c1ccccc12` (stereo not given), the GI50 in assay [1], in [17], in assay [18], in [2], in [3] and in assay [4] was > 100 µM (inactive) in each case. Moreover, the GI50 in assay [5], in assay [6], in [7], in assay [8], in [9] and in [10] was > 100 µM (inactive) in each case. In addition, the GI50 in assay [11], in [12], in [14], in assay [15] and in assay [16] was > 100 µM (inactive) in each case.
Take `Nn1c(CCCCCCCCc2nnc(COc3ccc(Cl)cc3Cl)n2N)nnc1COc1ccc(Cl)cc1Cl`: the GI50 in assay [1] was 29.1 µM (inactive); in assay [17], > 10 µM (inactive); in assay [18] it was 28.4 µM (inactive); in assay [2], 20 µM (inactive); in [3] it was 34.9 µM (inactive); in assay [5] it was 45.3 µM (inactive). The GI50 in assay [6] was 42 µM (inactive); in assay [7], 31.1 µM (inactive); in [8], > 100 µM (inactive); in assay [9], 38.3 µM (inactive); in assay [10], 46.5 µM (inactive); in assay [11], 41.9 µM (inactive). The GI50 in assay [12] was 47.1 µM (inactive); in [14], 49.3 µM (inactive); in assay [15] it was 33 µM (inactive); in [16], 32.7 µM (inactive).
